Laboratory results: patent US4731486A, “Hydroformylation using low volatile phosphine ligands” (Union Carbide Corporation, priority 1986, dated 1988)

Key:
[1] = Batch hydroformylation of butene-1 (Examples 14, 19); settings: 100° C., 300 ppm Rh
Description: (§1) Each rhodium catalytic precursor solution so prepared was then employed to hydroformylate propylene in a magnetically stirred, 100 mL capacity, stainless steel autoclave which was attached to a gas manifold for introducing gases to the desired partial pressures. The autoclave was also equipped with a pressure calibrator for determining reaction pressure to ±0.01 psia. and a platinum resistance thermometer for determining reactor solution temperatures to ±0.10° C. The reactor was heated externally by two 300 watt heating bands. The reactor solution temperature was controlled by a platinum resistance sensor connected to an external proportional temperature controller for controlling the temperature of the external band heaters.
(§2) In each non-aqueous hydroformylation reaction, about 15 milliliters (about 14 grams) of the rhodium catalytic precursor solution so prepared was charged to the autoclave reactor under nitrogen and heated to the reaction temperature employed (as given in Table 1 below). The reactor was then vented down to 5 psig. and a premixed gas mixture of 1:1:1 carbon monoxide:hydrogen:propylene was introduced into the reactor via the gas manifold (partial pressures given in Table 1) and the propylene so hydroformylated.
(§3) The hydroformylation reaction rate in gram moles per liter per hour of C4 aldehydes produced was determined from sequential 5 psia. pressure drops in the reactor spanning the nominal operating pressure in the reactor, while the mole ratio of linear (n-butyraldehyde) to branched (2-methylpropionaldehyde) product was measured by gas chromatography and the results are given in Table 1 below.
(§4) The same procedure and conditions employed in Example 1 of preparing various rhodium catalytic precursor solutions using rhodium dicarbonyl acetylacetonate, about a 3:1 (wt.:wt. ratio) mixture of Texanol® and CARBOWAX® TPEG-990 (about 25 wt. %) as the solubilizing agent, and a monosulfonated triphenylphosphine sodium salt ligand having the formula [drawing 26] and hydroformylating an olefin was repeated employing the various rhodium complex catalyst precursor solutions and using different alpha olefins as the hydroformylation feedstocks and the reaction conditions as shown in Table 14 below.
(§5) A comparison of the catalytic activity of aqueous and non-aqueous solutions of monosulfonated triphenylphosphine sodium salt ligand promoted catalysts in hydroformylating various molecular weight alphe-olefins was determined as follows.
The same procedure and conditions employed in Example 1 of preparing rhodium catalytic precursor solutions, using rhodium dicarbonyl acetylacetonate, monosulfonated triphenylphosphine sodium salt having the formula as shown in Example 4 in either a non-aqueous organic solubilizing agent solution or water, as given in Table 19 below, and hydroformylating the various alpha-olefins was repeated employing the various rhodium complex precursor solutions and hydroformylation reaction conditions as shown in Table 19 below. Both the aqueous and non-aqueous hydroformylation reactions were conducted under identical conditions with regard to temperature, rhodium and ligand concentration, hydrogen and carbon monoxide partial pressure and olefin concentration.

[2] = Batch hydroformylation of octene-1 (Examples 14, 15, 19)
Description: as §1, §2, §3, §4
The same procedure and conditions employed in Example 1 of preparing various rhodium catalytic precursor solutions using rhodium dicarbonyl acethylacetonate, a monosulfonated triphenylphosphine sodium salt ligand having the formula [drawing 27] and various mixtures of Texanol® and varying amounts (about 15 wt. % in Run No. 1 and about 10 wt. % in Run Nos. 2 to 5) of different added solubilizing agents as given in Table 15 below, and hydroformylating octene-1 was repeated employing the various rhodium complex catalyst precursor solutions and the reaction conditions as shown in Table 15 below.
as §5

[3] = Continuous single pass hydroformylation of butene-1 (Examples 3, 4, 5, 7, 12); settings: Texanol/PEG-600 10:1
Description: Continuous hydroformylation of butene-1 a monosulfonated triphenylphosphine metal salt ligand was conducted in the following manner.
The non-aqueous hydroformylation was conducted in a glass reactor operating in a continuous single pass butene-1 hydroformylation mode. The reactor consisted of a three-ounce pressure bottle submersed in an oil bath with a lass front for viewing. About 20-mL of a freshly prepared rhodium catalytic precursor solution was charged to the reactor with a syringe, after purging the system with nitrogen. […] After closing the reactor, the system was again purged with nitrogen and the oil bath was heated to furnish the desired hydroformylation reaction temperature. The hydroformylation reaction was conducted at a total gas pressure of about 160 psig., the partial pressures of hydrogen, carbon monoxide, and butene-1 being given in Table 3 below, the remainder being nitrogen and aldehyde product.
The flows of the feed gases (carbon monoxide, hydrogen, butene-1 and nitrogen) were controlled individually with mass flow meters and the feed gases dispersed into the precursor solution via microporous stainless steel spargers. The unreacted portion of the feed gases was stripped out with the product C5 aldehydes and the outlet gas analyzed over about 12 days of continuous operation.

[4] = Solubility of metal salt ligands in different aldehydes; format: physicochemical
[5] = Solubility of metal salt ligands in nonanal with added solubilizing agent; format: physicochemical; settings: 25° C.; nonanal with 1:4 CARBOWAX TPEG-900/TERGITOL NP-9
[6] = Texanol/TPEG-990 3:1, 8.7 wt. % ligand, 75 psia 4:1 H2:CO
[7] = aqueous (water as solvent), 90 psia 1:1 H2:CO
[8] = non-aqueous (Texanol/Carbowax TPEG990 2.6:1), 90 psia 1:1 H2:CO
[9] = Texanol/Benzonitrile (8:1), 90° C., 200 ppm Rh, 10 wt. % ligand, 75 psia 4:1 H2:CO
[10] = Texanol/Carbowax PEG 150, 90° C., 200 ppm Rh, 10 wt. % ligand, 75 psia 4:1 H2:CO
[11] = Texanol/Dimethyl Sulfoxide (5.5:1), 90° C., 200 ppm Rh, 10 wt. % ligand, 75 psia 4:1 H2:CO
[12] = Texanol/Niax PPG-1025, 90° C., 200 ppm Rh, 10 wt. % ligand, 75 psia 4:1 H2:CO
[13] = Texanol/Sulfolane (8:1), 90° C., 200 ppm Rh, 10 wt. % ligand, 75 psia 4:1 H2:CO
[14] = Texanol/TPEG-990 3:1, 100° C., 300 ppm Rh, 8.7 wt. % ligand, 75 psia 4:1 H2:CO
[15] = aqueous (water as solvent), 100° C., 300 ppm Rh, 90 psia 1:1 H2:CO
[16] = non-aqueous (Texanol/Carbowax TPEG990 2.6:1), 100° C., 300 ppm Rh, 90 psia 1:1 H2:CO
[17] = day 0.9, […], CO 51, H2 59, C4H8 20 psia
[18] = day 2.0, 101 °C, CO 51, H2 47, C4H8 22 psia
[19] = day 3.0, 101 °C, CO 20, H2 53, C4H8 24 psia
[20] = day 4.0, 101 °C, CO 20, H2 30, C4H8 39 psia
[21] = day 5.6, 101 °C, CO 15, H2 64, C4H8 31 psia
[22] = day 5.9 (so in the source), 101 °C, CO 15, H2 63, C4H8 31 psia

O=S(=O)([O-])c1cccc(P(c2ccccc2)c2ccccc2)c1.[Na+]
Linear/Branched Aldehyde Mole Ratio [1, 6]: 12.8
Reaction Rate [1, 6]: 5.96 G moles/L/hr
Linear/Branched Aldehyde Mole Ratio [1, 7]: 37.1
Reaction Rate [1, 7]: 0.44 G Moles/L/Hr
Linear/Branched Aldehyde Mole Ratio [1, 8]: 5.1
Reaction Rate [1, 8]: 6.94 G Moles/L/Hr
Linear/Branched Aldehyde Mole Ratio [2, 9]: 26.6
Reaction Rate (C9 aldehydes) [2, 9]: 0.47 G moles/L/hr
Linear/Branched Aldehyde Mole Ratio [2, 10]: 17.6
Reaction Rate (C9 aldehydes) [2, 10]: 1.12 G moles/L/hr
Linear/Branched Aldehyde Mole Ratio [2, 11]: 18.7
Reaction Rate (C9 aldehydes) [2, 11]: 0.95 G moles/L/hr
Linear/Branched Aldehyde Mole Ratio [2, 12]: 23.9
Reaction Rate (C9 aldehydes) [2, 12]: 0.71 G moles/L/hr
Linear/Branched Aldehyde Mole Ratio [2, 13]: 19.1
Reaction Rate (C9 aldehydes) [2, 13]: 0.98 G moles/L/hr
Linear/Branched Aldehyde Mole Ratio [2, 14]: 14.8
Reaction Rate [2, 14]: 4.17 G moles/L/hr
Linear/Branched Aldehyde Mole Ratio [2, 15]: 40.9
Reaction Rate [2, 15]: 0.11 G Moles/L/Hr
Linear/Branched Aldehyde Mole Ratio [2, 16]: 5.8
Reaction Rate [2, 16]: 2.84 G Moles/L/Hr
Linear/Branched Aldehyde Mole Ratio [3, 17]: 7.68
Rate (C5 aldehydes), daily average [3, 17]: 1.68 gmoles/L/Hr
Linear/Branched Aldehyde Mole Ratio [3, 18]: 9.21
Rate (C5 aldehydes), daily average [3, 18]: 1.81 gmoles/L/Hr
Linear/Branched Aldehyde Mole Ratio [3, 19]: 21.08
Rate (C5 aldehydes), daily average [3, 19]: 1.60 gmoles/L/Hr
Linear/Branched Aldehyde Mole Ratio [3, 20]: 19.83
Rate (C5 aldehydes), daily average [3, 20]: 2.50 gmoles/L/Hr
Linear/Branched Aldehyde Mole Ratio [3, 21]: 23.74
Rate (C5 aldehydes), daily average [3, 21]: 2.05 gmoles/L/Hr
Linear/Branched Aldehyde Mole Ratio [3, 22]: 22.82
Rate (C5 aldehydes), daily average [3, 22]: 2.06 gmoles/L/Hr
Metal Salt Solubility ([4]; Butyraldehyde, 60 °C): 10.0 Wt. %
Metal Salt Solubility ([4]; Heptanal, 80 °C): 0.4 Wt. %
Metal Salt Solubility ([4]; Nonanal, 80 °C): 0.5 Wt. %
Metal Salt Solubility ([4]; Propionaldehyde, 35 °C): 16.3 Wt. %
Metal Salt Solubility ([4]; Tridecanal, 80 °C): 0.5 Wt. %
Metal Salt Solubility ([4]; Valeraldehyde, 80 °C): 5.3 Wt. %
Metal Salt Solubility [5]: 25 Wt. %
